Like-named read-outs stand apart in the source and are kept apart here.
Key:
Test in all cases: Kinase selectivity, P33-radiolabeled assay
Assay type in all cases: biochemical
Conditions in all cases: 10 μM ATP
EPHA3 = biological target: T1, EPHA3 (Homo sapiens, UniProt P29320)
T1 construct: purchased Reaction Biology Corp
T1 sequence (P29320 21-983): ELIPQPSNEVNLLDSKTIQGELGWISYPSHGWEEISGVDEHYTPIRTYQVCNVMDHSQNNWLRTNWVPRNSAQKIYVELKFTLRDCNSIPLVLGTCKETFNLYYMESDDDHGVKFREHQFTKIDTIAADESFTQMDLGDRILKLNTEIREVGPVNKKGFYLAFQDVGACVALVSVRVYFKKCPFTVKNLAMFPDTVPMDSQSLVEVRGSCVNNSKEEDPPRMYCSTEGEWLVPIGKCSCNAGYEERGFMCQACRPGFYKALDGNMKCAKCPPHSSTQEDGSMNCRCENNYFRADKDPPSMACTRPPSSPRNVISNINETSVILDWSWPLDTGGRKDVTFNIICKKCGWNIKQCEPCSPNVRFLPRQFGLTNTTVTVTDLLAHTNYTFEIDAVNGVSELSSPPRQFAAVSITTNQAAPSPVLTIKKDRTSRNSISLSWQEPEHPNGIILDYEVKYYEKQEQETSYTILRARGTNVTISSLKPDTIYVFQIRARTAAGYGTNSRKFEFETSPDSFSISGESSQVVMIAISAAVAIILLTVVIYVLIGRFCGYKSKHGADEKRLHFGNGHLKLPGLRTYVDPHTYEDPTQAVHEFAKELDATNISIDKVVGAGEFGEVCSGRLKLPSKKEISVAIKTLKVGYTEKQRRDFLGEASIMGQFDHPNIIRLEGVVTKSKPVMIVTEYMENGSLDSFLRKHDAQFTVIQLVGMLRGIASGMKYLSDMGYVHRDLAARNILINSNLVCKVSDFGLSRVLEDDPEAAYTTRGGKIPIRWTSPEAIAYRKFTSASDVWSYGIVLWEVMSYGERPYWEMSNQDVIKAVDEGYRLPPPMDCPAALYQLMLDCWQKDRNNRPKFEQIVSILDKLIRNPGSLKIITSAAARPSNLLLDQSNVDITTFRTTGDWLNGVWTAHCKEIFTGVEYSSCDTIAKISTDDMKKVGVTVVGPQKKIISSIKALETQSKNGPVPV
In short: (§1)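 Duplicate single-concentration testing used 10 μM compound. The ATP concentration was also 10 μM.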

CK1g1 = biological target: T2, CK1g1 (Homo sapiens, UniProt Q9HCP0)
T2 construct: purchased Reaction Biology Corp
T2 sequence (Q9HCP0 whole entry): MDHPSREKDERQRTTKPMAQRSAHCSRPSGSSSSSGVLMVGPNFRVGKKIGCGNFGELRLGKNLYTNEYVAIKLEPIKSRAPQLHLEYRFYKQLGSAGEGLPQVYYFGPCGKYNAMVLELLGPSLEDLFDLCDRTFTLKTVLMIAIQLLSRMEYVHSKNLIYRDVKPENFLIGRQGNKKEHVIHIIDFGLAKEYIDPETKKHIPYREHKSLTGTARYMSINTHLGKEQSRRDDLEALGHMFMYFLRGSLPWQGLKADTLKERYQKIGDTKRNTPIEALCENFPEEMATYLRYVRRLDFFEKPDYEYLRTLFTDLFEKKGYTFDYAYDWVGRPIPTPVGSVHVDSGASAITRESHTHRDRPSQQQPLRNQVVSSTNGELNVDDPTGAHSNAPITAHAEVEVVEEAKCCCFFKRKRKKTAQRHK
In short: as §1

FGFR3 = biological target: T3, FGFR3 (Homo sapiens, UniProt P22607)
T3 construct: purchased Reaction Biology Corp
T3 sequence (P22607 23-806): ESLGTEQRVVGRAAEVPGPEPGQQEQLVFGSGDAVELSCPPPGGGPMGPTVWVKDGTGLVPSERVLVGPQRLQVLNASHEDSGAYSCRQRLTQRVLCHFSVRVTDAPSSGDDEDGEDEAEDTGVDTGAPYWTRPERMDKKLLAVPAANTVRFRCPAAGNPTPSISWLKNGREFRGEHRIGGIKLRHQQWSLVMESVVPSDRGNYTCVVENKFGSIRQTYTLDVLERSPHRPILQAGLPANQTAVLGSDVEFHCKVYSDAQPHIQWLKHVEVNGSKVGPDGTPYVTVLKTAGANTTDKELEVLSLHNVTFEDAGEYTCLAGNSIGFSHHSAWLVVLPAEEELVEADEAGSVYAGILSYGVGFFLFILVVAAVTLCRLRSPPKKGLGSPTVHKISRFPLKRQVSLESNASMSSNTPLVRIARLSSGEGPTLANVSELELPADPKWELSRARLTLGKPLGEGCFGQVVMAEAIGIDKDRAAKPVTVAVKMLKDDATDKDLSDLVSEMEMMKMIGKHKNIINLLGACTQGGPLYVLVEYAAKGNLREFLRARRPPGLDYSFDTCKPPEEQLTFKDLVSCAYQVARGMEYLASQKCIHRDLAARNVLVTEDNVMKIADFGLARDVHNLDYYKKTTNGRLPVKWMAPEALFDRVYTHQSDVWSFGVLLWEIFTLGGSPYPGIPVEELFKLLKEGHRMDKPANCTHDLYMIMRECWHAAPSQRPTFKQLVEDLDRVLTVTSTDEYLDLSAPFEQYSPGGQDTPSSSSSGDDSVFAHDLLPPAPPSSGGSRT
In short: as §1

NEK7 = biological target: T4, NEK7 (Homo sapiens, UniProt Q8TDX7)
T4 construct: purchased Reaction Biology Corp
T4 sequence (Q8TDX7 whole entry): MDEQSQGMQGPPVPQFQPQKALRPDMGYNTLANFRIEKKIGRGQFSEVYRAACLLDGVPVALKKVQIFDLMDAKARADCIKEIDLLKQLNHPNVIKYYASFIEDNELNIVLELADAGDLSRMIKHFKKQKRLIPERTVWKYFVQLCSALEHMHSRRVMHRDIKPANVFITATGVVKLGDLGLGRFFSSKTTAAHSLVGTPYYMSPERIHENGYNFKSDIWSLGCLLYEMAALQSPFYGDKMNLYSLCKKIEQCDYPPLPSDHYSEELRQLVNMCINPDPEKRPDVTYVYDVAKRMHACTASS
In short: as §1

CAMK4 = biological target: T5, CAMK4 (Homo sapiens, UniProt Q16566)
T5 construct: purchased Reaction Biology Corp
T5 sequence (Q16566 1-473): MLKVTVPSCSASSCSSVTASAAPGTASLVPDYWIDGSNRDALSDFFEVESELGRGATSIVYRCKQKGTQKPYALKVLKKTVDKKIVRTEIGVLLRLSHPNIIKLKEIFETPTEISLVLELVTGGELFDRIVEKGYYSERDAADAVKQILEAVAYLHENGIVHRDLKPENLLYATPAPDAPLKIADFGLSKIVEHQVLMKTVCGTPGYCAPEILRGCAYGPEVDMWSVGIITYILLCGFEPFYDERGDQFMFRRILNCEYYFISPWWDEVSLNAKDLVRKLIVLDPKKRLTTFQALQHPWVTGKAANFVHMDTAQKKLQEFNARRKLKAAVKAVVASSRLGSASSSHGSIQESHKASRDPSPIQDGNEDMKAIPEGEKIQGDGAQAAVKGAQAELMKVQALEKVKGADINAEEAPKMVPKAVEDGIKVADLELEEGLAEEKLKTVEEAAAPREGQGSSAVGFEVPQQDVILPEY
In short: as §1

IRR/INSRR = biological target: T6, IRR/INSRR (Homo sapiens, UniProt P14616)
T6 construct: purchased Reaction Biology Corp
T6 sequence (P14616 27-1297): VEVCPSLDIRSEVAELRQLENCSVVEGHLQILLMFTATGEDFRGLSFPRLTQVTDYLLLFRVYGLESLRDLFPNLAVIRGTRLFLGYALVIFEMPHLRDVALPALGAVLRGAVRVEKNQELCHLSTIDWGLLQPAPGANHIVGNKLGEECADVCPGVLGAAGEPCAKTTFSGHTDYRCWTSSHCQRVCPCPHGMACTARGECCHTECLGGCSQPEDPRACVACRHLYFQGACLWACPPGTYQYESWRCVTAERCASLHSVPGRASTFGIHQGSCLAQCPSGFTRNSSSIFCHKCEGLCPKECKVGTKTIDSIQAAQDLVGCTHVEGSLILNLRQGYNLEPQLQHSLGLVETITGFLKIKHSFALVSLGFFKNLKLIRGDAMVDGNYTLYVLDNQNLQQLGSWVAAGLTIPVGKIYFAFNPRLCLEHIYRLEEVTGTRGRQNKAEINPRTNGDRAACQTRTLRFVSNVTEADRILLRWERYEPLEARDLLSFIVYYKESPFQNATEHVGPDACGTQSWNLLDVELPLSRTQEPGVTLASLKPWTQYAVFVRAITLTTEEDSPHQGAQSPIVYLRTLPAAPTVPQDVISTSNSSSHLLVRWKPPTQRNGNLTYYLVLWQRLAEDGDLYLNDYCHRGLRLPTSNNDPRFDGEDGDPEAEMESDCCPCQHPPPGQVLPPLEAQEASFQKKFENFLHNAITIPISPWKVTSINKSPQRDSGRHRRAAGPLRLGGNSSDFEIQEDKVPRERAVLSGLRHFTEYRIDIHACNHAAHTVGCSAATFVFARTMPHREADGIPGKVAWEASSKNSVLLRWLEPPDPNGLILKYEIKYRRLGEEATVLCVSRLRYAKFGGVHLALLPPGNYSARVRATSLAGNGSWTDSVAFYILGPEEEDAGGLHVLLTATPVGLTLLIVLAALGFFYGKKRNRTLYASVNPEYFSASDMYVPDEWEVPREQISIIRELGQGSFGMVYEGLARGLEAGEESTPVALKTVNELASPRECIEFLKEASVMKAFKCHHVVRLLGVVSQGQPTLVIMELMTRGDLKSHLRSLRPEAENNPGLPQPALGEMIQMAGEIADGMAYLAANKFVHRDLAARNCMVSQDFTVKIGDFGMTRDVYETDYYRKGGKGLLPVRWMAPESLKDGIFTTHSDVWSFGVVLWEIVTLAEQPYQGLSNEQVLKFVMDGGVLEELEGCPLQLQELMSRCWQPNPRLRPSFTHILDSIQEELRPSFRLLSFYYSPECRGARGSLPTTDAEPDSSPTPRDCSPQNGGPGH
In short: as §1

STK33 = biological target: T7, STK33 (Homo sapiens, UniProt Q9BYT3)
T7 construct: purchased Reaction Biology Corp
T7 sequence (Q9BYT3 whole entry): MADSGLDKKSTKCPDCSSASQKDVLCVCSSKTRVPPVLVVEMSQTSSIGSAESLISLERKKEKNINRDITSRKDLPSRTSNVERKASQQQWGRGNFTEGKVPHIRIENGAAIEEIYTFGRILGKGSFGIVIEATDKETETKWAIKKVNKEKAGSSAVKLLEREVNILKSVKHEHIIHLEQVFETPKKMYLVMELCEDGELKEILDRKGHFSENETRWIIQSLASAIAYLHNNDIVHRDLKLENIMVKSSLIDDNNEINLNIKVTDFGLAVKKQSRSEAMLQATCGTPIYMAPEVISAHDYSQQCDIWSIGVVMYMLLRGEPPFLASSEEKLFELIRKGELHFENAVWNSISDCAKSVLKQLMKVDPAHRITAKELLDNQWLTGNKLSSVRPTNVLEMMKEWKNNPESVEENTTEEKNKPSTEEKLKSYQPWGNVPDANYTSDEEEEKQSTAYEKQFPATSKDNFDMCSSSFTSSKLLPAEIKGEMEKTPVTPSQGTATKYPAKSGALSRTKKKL
In short: as §1

CDK4/cyclin D1 = biological target: T8, CDK4/cyclin D1 (Homo sapiens, UniProt P11802)
T8 construct: purchased Reaction Biology Corp
T8 sequence (P11802 whole entry): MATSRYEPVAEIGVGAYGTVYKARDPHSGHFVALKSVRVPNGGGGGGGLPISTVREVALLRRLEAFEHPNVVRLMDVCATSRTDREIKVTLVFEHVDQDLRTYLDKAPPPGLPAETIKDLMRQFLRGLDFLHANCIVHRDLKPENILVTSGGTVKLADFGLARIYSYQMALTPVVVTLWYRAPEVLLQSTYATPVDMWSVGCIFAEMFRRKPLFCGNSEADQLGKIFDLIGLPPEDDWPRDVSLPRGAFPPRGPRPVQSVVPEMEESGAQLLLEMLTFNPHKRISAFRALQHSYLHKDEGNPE
T8 sequence (P24385 whole entry partner): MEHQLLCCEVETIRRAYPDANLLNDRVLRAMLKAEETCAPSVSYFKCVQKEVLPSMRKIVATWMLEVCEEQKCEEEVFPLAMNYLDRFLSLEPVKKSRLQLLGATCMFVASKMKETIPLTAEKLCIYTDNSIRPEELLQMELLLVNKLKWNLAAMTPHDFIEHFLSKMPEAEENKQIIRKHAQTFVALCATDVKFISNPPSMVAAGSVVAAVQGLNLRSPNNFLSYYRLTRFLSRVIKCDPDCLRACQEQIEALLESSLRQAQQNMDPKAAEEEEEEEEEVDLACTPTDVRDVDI
In short: as §1

RSK1 = biological target: T9, RSK1 (Homo sapiens, UniProt Q15418)
T9 construct: purchased Reaction Biology Corp
T9 sequence (Q15418 whole entry): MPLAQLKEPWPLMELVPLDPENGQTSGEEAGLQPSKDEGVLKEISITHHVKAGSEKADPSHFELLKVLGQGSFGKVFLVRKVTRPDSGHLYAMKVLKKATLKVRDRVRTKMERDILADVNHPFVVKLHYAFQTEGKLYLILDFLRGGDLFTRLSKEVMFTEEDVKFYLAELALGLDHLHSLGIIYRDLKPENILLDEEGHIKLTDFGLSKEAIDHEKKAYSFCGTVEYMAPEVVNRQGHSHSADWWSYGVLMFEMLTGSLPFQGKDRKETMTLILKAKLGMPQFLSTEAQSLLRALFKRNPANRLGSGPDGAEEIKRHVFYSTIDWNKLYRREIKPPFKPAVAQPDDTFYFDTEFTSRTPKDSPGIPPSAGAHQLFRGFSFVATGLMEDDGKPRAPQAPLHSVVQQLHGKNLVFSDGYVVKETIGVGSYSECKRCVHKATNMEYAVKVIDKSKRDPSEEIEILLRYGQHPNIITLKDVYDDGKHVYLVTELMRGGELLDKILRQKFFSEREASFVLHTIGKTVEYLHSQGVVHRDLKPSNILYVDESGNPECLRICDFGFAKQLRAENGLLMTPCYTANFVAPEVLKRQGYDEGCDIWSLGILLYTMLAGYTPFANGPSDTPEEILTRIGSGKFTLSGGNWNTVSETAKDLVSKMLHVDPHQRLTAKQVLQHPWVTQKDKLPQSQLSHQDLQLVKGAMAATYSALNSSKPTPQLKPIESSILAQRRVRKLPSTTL
In short: as §1

CDK2/cyclin E = biological target: T10, CDK2/cyclin E (Homo sapiens, UniProt P24941)
T10 construct: purchased Reaction Biology Corp
In short: as §1

CDC7/DBF4 = biological target: T11, CDC7/DBF4 (Homo sapiens, UniProt O00311)
T11 construct: purchased Reaction Biology Corp
In short: as §1

P38d/MAPK13 = biological target: T12, P38d/MAPK13 (Homo sapiens, UniProt O15264)
T12 construct: purchased Reaction Biology Corp
T12 sequence (O15264 1-365): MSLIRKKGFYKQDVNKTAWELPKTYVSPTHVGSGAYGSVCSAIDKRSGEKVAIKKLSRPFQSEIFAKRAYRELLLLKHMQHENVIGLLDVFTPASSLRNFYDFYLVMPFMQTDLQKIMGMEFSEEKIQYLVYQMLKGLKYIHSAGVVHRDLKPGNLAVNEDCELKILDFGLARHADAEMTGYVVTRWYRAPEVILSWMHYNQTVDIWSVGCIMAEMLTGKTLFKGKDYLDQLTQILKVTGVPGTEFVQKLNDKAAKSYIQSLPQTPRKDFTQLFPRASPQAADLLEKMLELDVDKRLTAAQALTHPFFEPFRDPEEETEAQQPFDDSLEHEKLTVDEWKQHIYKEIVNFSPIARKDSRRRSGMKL
In short: as §1

[1] = read-out: % Enzyme Activity (relative to DMSO controls) AVG
[2] = read-out: % Enzyme Activity (relative to DMSO controls) Data 1
[3] = read-out: % Enzyme Activity (relative to DMSO controls) Data 2

Structure (SMILES): CC(C)(C)C(=O)N1N=CC[C@H]1c1ccccc1 [GSK′963]
- remaining activity at 10 µM (EPHA3; [1]): 91.8%
- remaining activity at 10 µM (EPHA3; [2]): 94.4%
- remaining activity at 10 µM (EPHA3; [3]): 89.2%
- remaining activity at 10 µM (CK1g1; [1]): 108%
- remaining activity at 10 µM (CK1g1; [2]): 111%
- remaining activity at 10 µM (CK1g1; [3]): 105%
- remaining activity at 10 µM (FGFR3; [1]): 99.4%
- remaining activity at 10 µM (FGFR3; [2]): 103%
- remaining activity at 10 µM (FGFR3; [3]): 95.7%
- remaining activity at 10 µM (NEK7; [1]): 98.6%
- remaining activity at 10 µM (NEK7; [2]): 98.1%
- remaining activity at 10 µM (NEK7; [3]): 99%
- remaining activity at 10 µM (CAMK4; [1]): 96.7%
- remaining activity at 10 µM (CAMK4; [2]): 95.5%
- remaining activity at 10 µM (CAMK4; [3]): 97.9%
- remaining activity at 10 µM (IRR/INSRR; [1]): 75.3%
- remaining activity at 10 µM (IRR/INSRR; [2]): 72.8%
- remaining activity at 10 µM (IRR/INSRR; [3]): 77.7%
- remaining activity at 10 µM (STK33; [1]): 103%
- remaining activity at 10 µM (STK33; [2]): 104%
- remaining activity at 10 µM (STK33; [3]): 102%
- remaining activity at 10 µM (CDK4/cyclin D1; [1]): 96.7%
- remaining activity at 10 µM (CDK4/cyclin D1; [2]): 94.5%
- remaining activity at 10 µM (CDK4/cyclin D1; [3]): 98.9%
- remaining activity at 10 µM (RSK1; [1]): 126%
- remaining activity at 10 µM (RSK1; [2]): 123%
- remaining activity at 10 µM (RSK1; [3]): 128%
- remaining activity at 10 µM (CDK2/cyclin E; [1]): 95.2%
- remaining activity at 10 µM (CDK2/cyclin E; [2]): 95.7%
- remaining activity at 10 µM (CDK2/cyclin E; [3]): 94.7%
- remaining activity at 10 µM (CDC7/DBF4; [1]): 103%
- remaining activity at 10 µM (CDC7/DBF4; [2]): 105%
- remaining activity at 10 µM (CDC7/DBF4; [3]): 101%
- remaining activity at 10 µM (P38d/MAPK13; [1]): 100%
- remaining activity at 10 µM (P38d/MAPK13; [2]): 99.8%
- remaining activity at 10 µM (P38d/MAPK13; [3]): 101%
